The values that follow come from patent US11274073B2, “TRPV1 modulator compounds” (ANTALGENICS, S.L., priority 2017, dated 2022).

Each structure is given as a SMILES string.

T1 sequence (O35433 whole entry): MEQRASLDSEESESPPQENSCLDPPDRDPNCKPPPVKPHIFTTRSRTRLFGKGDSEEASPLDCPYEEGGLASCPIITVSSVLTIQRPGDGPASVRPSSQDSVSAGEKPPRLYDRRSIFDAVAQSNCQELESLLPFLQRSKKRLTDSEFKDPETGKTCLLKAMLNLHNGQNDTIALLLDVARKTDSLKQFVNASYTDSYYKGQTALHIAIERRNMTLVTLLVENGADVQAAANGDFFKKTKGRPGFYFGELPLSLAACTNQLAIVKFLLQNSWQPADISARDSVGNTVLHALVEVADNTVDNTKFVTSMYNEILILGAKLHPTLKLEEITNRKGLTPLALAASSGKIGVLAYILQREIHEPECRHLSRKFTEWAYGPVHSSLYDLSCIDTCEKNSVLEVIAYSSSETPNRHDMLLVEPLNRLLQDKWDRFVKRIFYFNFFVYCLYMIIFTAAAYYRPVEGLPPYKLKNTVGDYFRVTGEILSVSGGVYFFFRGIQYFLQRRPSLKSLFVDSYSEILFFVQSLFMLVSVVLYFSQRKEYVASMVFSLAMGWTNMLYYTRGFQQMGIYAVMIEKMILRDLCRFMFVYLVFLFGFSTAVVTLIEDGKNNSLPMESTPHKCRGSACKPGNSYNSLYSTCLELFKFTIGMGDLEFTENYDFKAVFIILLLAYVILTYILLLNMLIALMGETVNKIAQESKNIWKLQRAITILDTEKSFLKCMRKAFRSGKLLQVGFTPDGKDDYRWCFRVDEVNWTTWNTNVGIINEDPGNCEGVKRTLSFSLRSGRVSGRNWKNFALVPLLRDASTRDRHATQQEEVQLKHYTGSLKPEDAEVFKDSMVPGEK

One assay has as its target T1, rat TRPV1 channel (Rattus norvegicus, UniProt O35433).
T1 construct: expressed in transfected cells; host or cells: SH-SY5Y (human neuroblastoma) stably expressing rat TRPV1, under puromycin selection
The assay can be described thus: Calcium microfluorometry assay on TRPV1-SH-SY5Y cells, single concentration 10 μM. The format is cell-based. The note with it: compound 10 μM before stimulation with 10 μM capsaicin, RR (10 μM Ruthenium Red) = 100%. Here is the method:
The activity of the compounds was determined on TRPV1 expressing cells (TRPV1-SH-SY5Y) by Calcium microfluorometry assay.
SH-SY5Y cells stably expressing rat TRPV1 channel (SH-SY5Y-TRPV1) were grown in Earle's minimum essential medium (MEM) containing 10% (v/v) of FCS, 1% nonessential amino acids, 2 mM L-glutamine, 100 μg/ml streptomycin, 100 U/ml penicillin, and 0.4 μg/ml puromycin in a humidity-controlled incubator with 5% CO2 and at 37° C. For fluorescence assays, cells expressing TRPV1 channel (TRPV1-SH-SY5Y) were seeded in 96-well plates (Corning Incorporated, Corning, N.Y.) at a cell density of 40,000 cells 2 days before treatment. The day of treatment the medium was replaced with 100 μL of the dye loading solution Fluo-4 NW supplemented with probenecid 2.5 mM. After incubation at 37° C. in a humidified atmosphere of 5% CO2 for 60 minutes, plates were transferred to a fluorescence plate reader (Polastar Omega BMG Labtech). The baseline fluorescence of Fluo-4 dye ([…]) was recorded for 4 cycles. […] The antagonist (10 μM Ruthenium Red for TRPV1) was added for the blockade. The changes in fluorescence intensity were recorded during 10 cycles more.
Turning to `COc1cc(CNC(=O)COC(=O)CC/C(C)=C/CC/C(C)=C/CC/C=C(\C)CCC=C(C)CCC=C(C)C)c(I)cc1O` (stereo in doubt) [Ex-53, (4E,8E,12E,16E)-2-((4-hydroxy-2-iodo-5-methoxy-benzyl)amino)-2-oxoethyl 4,8,13,17,21-pentamethyl-docosa-4,8,12,16,20-pentaenoate], the “TRPV1 blockage at 10 μM (% ± SD)” value was determined as 31.05 ± 1.46%.

On to `CCCC(=O)OCC(=O)NCc1cc(OC)c(O)cc1I` [Ex-17, 2-((4-hydroxy-2-iodo-5-methoxybenzyl)amino)-2-oxoethyl butyrate], for which the “TRPV1 blockage at 10 μM (% ± SD)” value was 14.44 ± 0.27%.

As for `CCCCC(=O)OCC(=O)NCc1cc(OC)c(O)cc1I` [Ex-19, 2-((4-hydroxy-2-iodo-5-methoxybenzyl)amino)-2-oxoethyl pentanoate], the “TRPV1 blockage at 10 μM (% ± SD)” value is 21.85 ± 2.85%.

With `COc1cc(CNC(=O)COC(=O)CC(C)C)c(I)cc1O` [Ex-21, 2-((4-hydroxy-2-iodo-5-methoxybenzyl)amino)-2-oxoethyl 3-methyl-butanoate], the “TRPV1 blockage at 10 μM (% ± SD)” value came to 8.35 ± 4.10%.

For the molecule `CCCCCC(=O)OCC(=O)NCc1cc(OC)c(O)cc1I` [Ex-23, 2-((4-hydroxy-2-iodo-5-methoxybenzyl)amino)-2-oxoethyl hexanoate], the “TRPV1 blockage at 10 μM (% ± SD)” value is listed as 23.14 ± 7.81%.

Regarding `C/C=C/C=C/C(=O)OCC(=O)NCc1cc(OC)c(O)cc1I` [Ex-25, (2E,4E)-2-((4-hydroxy-2-iodo-5-methoxybenzyl)amino)-2-oxoethyl hexa-2,4-dienoate], the “TRPV1 blockage at 10 μM (% ± SD)” value stood at 13.98 ± 5.98%.

For `CCCCCCC(=O)OCC(=O)NCc1cc(OC)c(O)cc1I` [Ex-27, 2-((4-hydroxy-2-iodo-5-methoxybenzyl)amino)-2-oxoethyl heptanoate], the “TRPV1 blockage at 10 μM (% ± SD)” value came out at 21.80 ± 5.41%.

Turning to `CCCCCCCC(=O)OCC(=O)NCc1cc(OC)c(O)cc1I` [Ex-29, 2-((4-hydroxy-2-iodo-5-methoxybenzyl)amino)-2-oxoethyl octanoate], the “TRPV1 blockage at 10 μM (% ± SD)” value turned out to be 31.23 ± 8.34%.

Turning to `CCCCCCCCC(=O)OCC(=O)NCc1cc(OC)c(O)cc1I` [Ex-31, 2-((4-hydroxy-2-iodo-5-methoxybenzyl)amino)-2-oxoethyl nonanoate], the “TRPV1 blockage at 10 μM (% ± SD)” value was 25.23 ± 7.63%.

For the molecule `CCCCCCCCCC(=O)OCC(=O)NCc1cc(OC)c(O)cc1I` [Ex-35, 2-((4-hydroxy-2-iodo-5-methoxybenzyl)amino)-2-oxoethyl decanoate], the “TRPV1 blockage at 10 μM (% ± SD)” value was found to be 20.48 ± 9.67%.

In the case of `CCCCCCCCCCCCCCC(=O)OCC(=O)NCc1cc(OC)c(O)cc1I` [Ex-39, 2-((4-hydroxy-2-iodo-5-methoxybenzyl)amino)-2-oxoethyl pentadecanoate], the “TRPV1 blockage at 10 μM (% ± SD)” value worked out at 21.82 ± 4.75%.

Consider `CCCCCCCCCCCCCCCCCC(=O)OCC(=O)NCc1cc(OC)c(O)cc1I` [Ex-41, 2-((4-hydroxy-2-iodo-5-methoxybenzyl)amino)-2-oxoethyl stearate], for which the “TRPV1 blockage at 10 μM (% ± SD)” value turned out to be 38.89 ± 3.53%.

As for `CCCCCCCC/C=C\CCCCCCCC(=O)OCC(=O)NCc1cc(OC)c(O)cc1I` [Ex-43, 2-((4-hydroxy-2-iodo-5-methoxybenzyl)amino)-2-oxoethyl oleate], the “TRPV1 blockage at 10 μM (% ± SD)” value came out at 45.68 ± 14.26%.

With `CCCCCC[C@@H](O)C/C=C\CCCCCCCC(=O)OCC(=O)NCc1cc(OC)c(O)cc1I` [Ex-45, (R,Z)-2-((4-hydroxy-2-iodo-5-methoxybenzyl)amino)-2-oxoethyl 12-hydroxyoctadec-9-enoate], the “TRPV1 blockage at 10 μM (% ± SD)” value was 21.74 ± 7.05%.

Take `CCCCCC[C@H](C/C=C\CCCCCCCC(=O)OCC(=O)NCc1cc(OC)c(O)cc1I)OC(=O)Cc1ccccc1` [Ex-47, (Z)-2-((4-hydroxy-2-iodo-5-methoxybenzyl)amino)-2-oxoethyl 12-(2-phenyl-acetoxy)octadec-9-enoate]: the “TRPV1 blockage at 10 μM (% ± SD)” value was 63.29 ± 12.80%.

Turning to `CCCCCCCC/C=C\CCCCCCCCCCCC(=O)OCC(=O)NCc1cc(OC)c(O)cc1I` [Ex-49, (Z)-2-((4-hydroxy-2-iodo-5-methoxybenzyl)amino)-2-oxoethyl docos-13-enoate], the “TRPV1 blockage at 10 μM (% ± SD)” value was 34.94 ± 5.51%.

On to `CCCCC/C=C\C/C=C\C/C=C\C/C=C\CCCC(=O)OCC(=O)NCc1cc(OC)c(O)cc1I` [Ex-51, (5Z,8Z,11Z,14Z)-2-((4-hydroxy-2-iodo-5-methoxy-benzyl)amino)-2-oxoethyl icosa-5,8,11,14-tetraenoate], for which the “TRPV1 blockage at 10 μM (% ± SD)” value is 30.85 ± 5.87%.

Turning to `CC(C)=CCC/C(C)=C/C(=O)OCC(=O)NCCc1cc(O)c(O)cc1I` [Ex-59, (E)-2-((4,5-dihydroxy-2-iodophenethyl)amino)-2-oxoethyl 3,7-dimethylocta-2,6-dienoate], the “TRPV1 blockage at 10 μM (% ± SD)” value is 46.3 ± 12.70%.

The assay is the same for the next values; noted with them: compound 10 μM, Fluo-4 NW fluorescence, Cap (10 μM capsaicin) = 100%.
On to `COc1cc(CNC(=O)CCCC/C=C/C(C)C)ccc1O` [Capsaicin, reference compound], for which the “TRPV1 activation at 10 μM (% ± SD)” value is given as 100%.

As for `CCCC(=O)OCC(=O)NCc1ccc(O)c(OC)c1` [Ex-16, 2-((4-hydroxy-3-methoxybenzyl)amino)-2-oxoethyl butyrate], the “TRPV1 activation at 10 μM (% ± SD)” value is on record as 25.59 ± 4.29%.

Consider `CCCCC(=O)OCC(=O)NCc1ccc(O)c(OC)c1` [Ex-18, 2-((4-hydroxy-3-methoxy-benzyl)amino)-2-oxoethyl pentanoate], for which the “TRPV1 activation at 10 μM (% ± SD)” value is given as 29.43 ± 14.90%.

As to `COc1cc(CNC(=O)COC(=O)CC(C)C)ccc1O` [Ex-20, 2-((4-hydroxy-3-methoxy-benzyl)amino)-2-oxoethyl 3-methylbutanoate], the “TRPV1 activation at 10 μM (% ± SD)” value is 35.82 ± 3.48%.

With `CCCCCC(=O)OCC(=O)NCc1ccc(O)c(OC)c1` [Ex-22, 2-((4-hydroxy-3-methoxy-benzyl)amino)-2-oxoethyl hexanoate], the “TRPV1 activation at 10 μM (% ± SD)” value worked out at 73.32 ± 12.83%.

For `C/C=C/C=C/C(=O)OCC(=O)NCc1ccc(O)c(OC)c1` [Ex-24, (2E,4E)-2-((4-hydroxy-3-methoxybenzyl)amino)-2-oxoethyl hexa-2,4-dienoate], the “TRPV1 activation at 10 μM (% ± SD)” value stood at 75.59 ± 6.25%.

Turning to `CCCCCCC(=O)OCC(=O)NCc1ccc(O)c(OC)c1` [Ex-26, 2-((4-hydroxy-3-methoxy-benzyl)amino)-2-oxoethyl heptanoate], the “TRPV1 activation at 10 μM (% ± SD)” value is given as 74.41 ± 17.66%.

On to `CCCCCCCC(=O)OCC(=O)NCc1ccc(O)c(OC)c1` [Ex-28, 2-((4-hydroxy-3-methoxy-benzyl)amino)-2-oxoethyl octanoate], for which the “TRPV1 activation at 10 μM (% ± SD)” value stood at 54.08 ± 4.09%.

As to `CCCCCCCCC(=O)OCC(=O)NCc1ccc(O)c(OC)c1` [Ex-30, 2-((4-hydroxy-3-methoxybenzyl)amino)-2-oxoethyl nonanoate], the “TRPV1 activation at 10 μM (% ± SD)” value is listed as 68.45 ± 7.20%.

In the case of `CCCCCCCCCC(=O)OCC(=O)NCc1ccc(O)c(OC)c1` [Ex-34, 2-((4-hydroxy-3-methoxy-benzyl)amino)-2-oxoethyl decanoate], the “TRPV1 activation at 10 μM (% ± SD)” value worked out at 47.91 ± 10.32%.

Take `CCCCCCCCCCCCCCC(=O)OCC(=O)NCc1ccc(O)c(OC)c1` [Ex-38, 2-((4-hydroxy-3-methoxy-benzyl)amino)-2-oxoethyl pentadecanoate]: the “TRPV1 activation at 10 μM (% ± SD)” value is listed as 75.96 ± 9.86%.

On to `CCCCCCCCCCCCCCCCCC(=O)OCC(=O)NCc1ccc(O)c(OC)c1` [Ex-40, 2-((4-hydroxy-3-methoxy-benzyl)amino)-2-oxoethyl stearate], for which the “TRPV1 activation at 10 μM (% ± SD)” value amounted to 54.74 ± 17.75%.

Regarding `CCCCCCCC/C=C\CCCCCCCC(=O)OCC(=O)NCc1ccc(O)c(OC)c1` [Ex-42, 2-((4-hydroxy-3-methoxy-benzyl)amino)-2-oxoethyl oleate], the “TRPV1 activation at 10 μM (% ± SD)” value is on record as 77.19 ± 11.95%.

As for `CCCCCC[C@@H](O)C/C=C\CCCCCCCC(=O)OCC(=O)NCc1ccc(O)c(OC)c1` [Ex-44, (R,Z)-2-((4-hydroxy-3-methoxybenzyl)amino)-2-oxoethyl 12-hydroxyoctadec-9-enoate], the “TRPV1 activation at 10 μM (% ± SD)” value was 60.84 ± 12.80%.

As to `CCCCCC[C@H](C/C=C\CCCCCCCC(=O)OCC(=O)NCc1ccc(O)c(OC)c1)OC(=O)Cc1ccccc1` [Ex-46, (Z)-2-((4-hydroxy-3-methoxy-benzyl)amino)-2-oxoethyl 12-(2-phenylacetoxy)octadec-9-enoate], the “TRPV1 activation at 10 μM (% ± SD)” value came out at 33.16 ± 9.97%.

For `CCCCCCCC/C=C\CCCCCCCCCCCC(=O)OCC(=O)NCc1ccc(O)c(OC)c1` [Ex-48, (Z)-2-((4-hydroxy-3-methoxybenzyl)amino)-2-oxoethyl docos-13-enoate], the “TRPV1 activation at 10 μM (% ± SD)” value is 47.40 ± 14.56%.

Regarding `CCCCC/C=C\C/C=C\C/C=C\C/C=C\CCCC(=O)OCC(=O)NCc1ccc(O)c(OC)c1` [Ex-50, (5Z,8Z,11Z,14Z)-2-((4-hydroxy-3-methoxy-benzyl)amino)-2-oxoethyl icosa-5,8,11,14-tetraenoate], the “TRPV1 activation at 10 μM (% ± SD)” value was 73.80 ± 7.42%.

As to `CC(C)=CCC/C(C)=C/C(=O)OCC(=O)NCCc1ccc(O)c(O)c1` [Ex-58, (E)-2-((3,4-dihydroxyphenethyl)amino)-2-oxoethyl 3,7-dimethylocta-2,6-dienoate], the “TRPV1 activation at 10 μM (% ± SD)” value is 88.12 ± 9.76%.

Take `CCCCCCCC/C=C\CCCCCCCC(=O)OCC(=O)NCCc1ccc(O)c(O)c1` [Ex-62, 2-((3,4-dihydroxyphenethyl)-amino)-2-oxoethyl oleate]: the “TRPV1 activation at 10 μM (% ± SD)” value was 78.48 ± 4.61%.
